Entries after “also recorded” stand apart in the source; their conditions may differ.
Columns and labels:
Assay type in all cases: in vivo
[1] = tested on: venom of Protobothrops mucrosquamatus; assay: Efficacy against death caused by hemotoxic venom in ICR mice (flavonoid pre-mixed with venom, intradermal injection); settings: venom 2.5 × LD50 per mouse, flavonoid 50 nmole per mouse
Description: The ICR mice were randomly divided into four groups, which included a pathological control group, two experimental groups (i.e., experimental groups 1 and 2), and one comparative group (n=7 mice in each group). Next, a respective one of the isorhamnetin, the quercetin, and the apigenin was mixed with a venom of Protobothrops mucrosquamatus in a volume ratio of 1:20, followed by incubation at 37° C. for 30 minutes, thereby forming a respective mixture solution. Afterward, the respective ICR mouse of each of the experimental groups 1 and 2 and the comparative group was intradermally injected with a suitable amount of the mixture solution as shown in Table 2 below. In addition, the respective ICR mouse in the pathological control group was intradermally injected with the venom of Protobothrops mucrosquamatus.
Subsequently, the survival number of the ICR mice in each group was observed and recorded at every hour until 10 hours after injection with the treating agent. The viability percentage (%) of the ICR mice in each group was calculated using the following Equation (1):
where A=viability percentage (%)
B=survival number of the ICR mice at every hour until 10 hours after injection with treating agent

[2] = tested on: snake venom protein mixture (cardiotoxins and high molecular weight proteins from the venom of Naja atra); assay: Cutaneous ulceration caused by snake venom proteins in ICR mice, intradermal injection; settings: for area of cutaneous ulcers compared to pathological control group (in words): 24th hour after injection, 50 nmole per mouse pre-mixed with 0.1 mL snake venom protein mixture, intradermal; for median effective dose (ED50) for reducing an area of a cutaneous ulcer: administered via intradermal injection
Source text: (§1) For further study of the efficacy of isorhamnetin and quercetin in alleviating cutaneous ulceration caused by snake venom proteins, the applicants conducted experiments using a snake venom protein mixture containing snake venom proteins having a molecular weight of not lower than 43 kD and a cardiotoxin that might cause tissue necrosis, so as to avoid sudden death of the ICR mice due to other toxins that might have interfered with the observation.
(§2) First, cardiotoxins were isolated from a suitable amount of the venom of Naja atra with reference to the methods descried in SC Sue et al., (2001), Biochemistry, 40, 12782-12794. […] Next, the cardiotoxins and the high molecular weight proteins were mixed, so as to obtain a snake venom protein mixture containing 0.5 mg/mL of the cardiotoxins and 0.025 mg/mL of the high molecular weight proteins.
First, the ICR mice were randomly divided into three groups, including a pathological control group and two experimental groups (i.e., experimental groups 1 and 2) (n=7 mice in each group). Next, a respective one of the quercetin and isorhamnetin was mixed with a suitable amount of the snake venom protein mixture in a volume ratio of 1:20, followed by incubation at 37° C. for […], thereby forming a respective mixture solution. Afterward, the respective ICR mouse of the experimental groups 1 and 2 was intradermally injected with a suitable amount of the mixture solution as shown in Table 4 below. In addition, the respective ICR mouse in the pathological control group was intradermally injected with the snake venom protein mixture.
At the 24th hour after injection with the treating agent, cutaneous ulcers occurring in the ICR mice of each group were photographed and the area thereof was analyzed using ImageJ software.

[3] = tested on: snake venom protein mixture (cardiotoxins and high molecular weight proteins from the venom of Naja atra); assay: Cutaneous ulceration caused by snake venom proteins in ICR mice, topical administration; settings: via topical administration
Source text: as §1, §2
For further evaluating whether or not a similar result, as that of the experimental group 2 in Section A of this example, could be obtained when the isorhamnetin was applied via topical administration immediately after a subject suffered from a venomous snake bite, the following experiments were conducted.
First, 3.1 mg of the isorhamnetin was mixed with 1 mL of petroleum jelly in a melted state at 45° C., thereby obtaining an isorhamnetin ointment. […]

venom of Naja nivea = assay: Efficacy of isorhamnetin in alleviating toxicity from neurotoxic venom in ICR mice (isorhamnetin injected 30 minutes after venom); settings: 48th hour after injection; isorhamnetin 50 nmole per mouse 30 minutes after venom 2.5 × LD50
Description: To closely simulate conditions of an emergency treatment in which the subject was a victim of a venomous snake bite, in this application, the ICR mice were injected with the venom of Naja nivea and the isorhamnetin separately (with a time interval therebetween) instead of simultaneously (i.e., mixed in advance for injection).
First, the ICR mice were randomly divided into two groups, including a pathological control group (i.e., pathological control group 7) and an experimental group (i.e., experimental group 7) (n=7 mice in each group). Next, the respective ICR mouse in each group was intradermally injected with a suitable amount of the venom of Naja nivea (dose: 2.5×LD50 per mouse). After 30 minutes, the respective ICR mouse in the experimental group was intradermally injected again with a suitable amount of the isorhamnetin (dose: 50 nmole per mouse).
Subsequently, the survival number of the ICR mice in each group was observed and recorded at every hour until 48 hours after injection with the treating agent. The viability percentage (%) of the ICR mice in each group was calculated using the Equation (1).

SMILES | effect against death caused by a hemotoxic venom (in words) [1] | area of cutaneous ulcers compared to pathological control group (in words) [2] | median effective dose (ED50) for reducing an area of a cutaneous ulcer [2] [µM] | median effective dose (ED50) for reducing an area of a cutaneous ulcer [3] [µM] | survival (in words) (venom of Naja nivea)
O=c1cc(-c2ccc(O)cc2)oc2cc(O)cc(O)c12 [apigenin, reference compound] | may accelerate death | – | – | – | –
O=c1c(O)c(-c2ccc(O)c(O)c2)oc2cc(O)cc(O)c12 [quercetin] | effective against death caused by a hemotoxic venom | significantly reduced | 1200 | – | –
COc1cc(-c2oc3cc(O)cc(O)c3c(=O)c2O)ccc1O [isorhamnetin] | effective against death caused by a hemotoxic venom | significantly reduced; also recorded: highest degree of reduction | 200 | 600 | could even survive until the 48th hour
